Reference: US6914045B2, “Glycopeptide antibiotics” (Wyeth Holdings Corporation, priority 2001, dated 2005)
In brackets after ≈: the same amount, converted by molar mass.

Key:
Assay in all cases: in vitro antibacterial evaluation, MIC by broth dilution
Type in all cases: cell-based
Staphylococcus sp. = settings: broth dilution, 18 hours at 35° C.; for MIC Staphylococcus aureus (GC 1131): strain GC 1131
Summary of the method: (§1)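 Read-out: the lowest concentration at which the test strain fails to grow. Serial dilutions (64-0.06 μg/mL) in Muller-Hinton II […], 5×10^5 CFU/mL inoculum, NCCLS M7-A2 procedure.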

Escherichia coli = test system: Escherichia coli
Summary of the method: as §1

Streptococcus sp. = settings: broth dilution, 18 hours at 35° C.
Summary of the method: as §1

Enterococcus sp. = settings: broth dilution, 18 hours at 35° C.; for MIC Enterococcus faecalis (ATCC 29212): strain ATCC 29212; for MIC Enterococcus faecium (GC 2243): strain GC 2243; for MIC Enterococcus faecalis (GC 4552): strain GC 4552; for MIC Enterococcus faecalis (GC 4553): strain GC 4553; for MIC Enterococcus faecalis (GC 4554): strain GC 4554; for MIC Enterococcus faecium (GC 4556): strain GC 4556; for MIC Enterococcus faecium (GC 4557): strain GC 4557; for MIC Enterococcus avium (GC 4558): strain GC 4558; for MIC Enterococcus faecalis (GC 6189): strain GC 6189
Summary of the method: as §1

MIC Staphylococcus aureus (GC 1131) (Staphylococcus sp.; inoculum 5×10^5 CFU/mL): 8 µg/mL (≈ 5.46 µM)
MIC Staphylococcus aureus (ATCC 29213) (Staphylococcus sp.; strain ATCC 29213): 4 µg/mL (≈ 2.73 µM)
MIC Staphylococcus aureus (GC 1131) (Staphylococcus sp.): 8 µg/mL (≈ 5.46 µM)
MIC Staphylococcus aureus (GC 3051) (Staphylococcus sp.; strain GC 3051): 8 µg/mL (≈ 5.46 µM)
MIC Staphylococcus aureus (GC 3053) (Staphylococcus sp.; strain GC 3053): 8 µg/mL (≈ 5.46 µM)
MIC Staphylococcus aureus (GC 4541) (Staphylococcus sp.; strain GC 4541): 4 µg/mL (≈ 2.73 µM)
MIC Staphylococcus aureus (GC 4542) (Staphylococcus sp.; strain GC 4542): 4 µg/mL (≈ 2.73 µM)
MIC Staphylococcus aureus-SMITH (GC 4543) (Staphylococcus sp.; strain GC 4543): 4 µg/mL (≈ 2.73 µM)
MIC Staphylococcus aureus (GC 4544) (Staphylococcus sp.; strain GC 4544): 8 µg/mL (≈ 5.46 µM)
MIC Staphylococcus aureus (GC 4545) (Staphylococcus sp.; strain GC 4545): 4 µg/mL (≈ 2.73 µM)
MIC Coagulase Negative Staphylococcus (GC 4547) (Staphylococcus sp.; strain GC 4547): 4 µg/mL (≈ 2.73 µM)
MIC Coagulase Negative Staphylococcus (GC 4548) (Staphylococcus sp.; strain GC 4548): 2 µg/mL (≈ 1.37 µM)
MIC Coagulase Negative Staphylococcus (GC 4549) (Staphylococcus sp.; strain GC 4549): 2 µg/mL (≈ 1.37 µM)
MIC Coagulase Negative Staphylococcus (GC 4551) (Staphylococcus sp.; strain GC 4551): 8 µg/mL (≈ 5.46 µM)
MIC Coagulase Negative Staphylococcus (GC 6257) (Staphylococcus sp.; strain GC 6257): 2 µg/mL (≈ 1.37 µM)
MIC Staphylococcus aureus-SMITH (GC 4543) (Staphylococcus sp.; strain SMITH GC 4543): 4 µg/mL (≈ 2.73 µM)
MIC Escherichia coli (ATCC 25922) (Escherichia coli; strain ATCC 25922, 18 hours at 35° C.): >64 µg/mL
MIC Escherichia coli (GC 4559) (Escherichia coli; strain GC 4559, 18 hours at 35° C.): >64 µg/mL
MIC Escherichia coli (GC 4560) (Escherichia coli; strain GC 4560, 18 hours at 35° C.): 2 µg/mL (≈ 1.37 µM)
MIC Streptococcus agalactiae (GC 4564) (Streptococcus sp.; Streptococcus agalactiae (GC 4564)): 1 µg/mL (≈ 0.683 µM)
MIC Streptococcus pneumoniae (ATCC 6301) (Streptococcus sp.; Streptococcus pneumoniae (ATCC 6301)): 0.5 µg/mL (≈ 0.341 µM)
MIC Streptococcus pneumoniae (GC 1894) (Streptococcus sp.; Streptococcus pneumoniae (GC 1894)): 0.12 µg/mL (≈ 0.0819 µM)
MIC Streptococcus pneumoniae (GC 4565) (Streptococcus sp.; Streptococcus pneumoniae (GC 4565)): 0.5 µg/mL (≈ 0.341 µM)
MIC Streptococcus pyogenes (GC 4563) (Streptococcus sp.; Streptococcus pyogenes (GC 4563)): 1 µg/mL (≈ 0.683 µM)
MIC Streptococcus pneumoniae (ATCC 6301) (Streptococcus sp.; strain ATCC 6301): 0.5 µg/mL (≈ 0.341 µM)
MIC Streptococcus pneumoniae (GC 1894) (Streptococcus sp.; strain GC 1894): 0.12 µg/mL (≈ 0.0819 µM)
MIC Streptococcus pyogenes (GC 4563) (Streptococcus sp.; strain GC 4563): 1 µg/mL (≈ 0.683 µM)
MIC Streptococcus agalactiae (GC 4564) (Streptococcus sp.; strain GC 4564): 1 µg/mL (≈ 0.683 µM)
MIC Streptococcus pneumoniae (GC 4565) (Streptococcus sp.; strain GC 4565): 0.5 µg/mL (≈ 0.341 µM)
MIC Enterococcus faecalis (GC 2242) (Enterococcus sp.; Enterococcus faecalis (GC 2242)): 16 µg/mL (≈ 10.9 µM)
MIC Enterococcus faecalis (GC 2691) (Enterococcus sp.; Enterococcus faecalis (GC 2691)): 16 µg/mL (≈ 10.9 µM)
MIC Enterococcus faecalis (GC 3059) (Enterococcus sp.; Enterococcus faecalis (GC 3059)): 16 µg/mL (≈ 10.9 µM)
MIC Enterococcus faecalis (ATCC 29212) (Enterococcus sp.; inoculum 5×10^5 CFU/mL): 16 µg/mL (≈ 10.9 µM)
MIC Enterococcus faecium (GC 2243) (Enterococcus sp.; inoculum 5×10^5 CFU/mL): 16 µg/mL (≈ 10.9 µM)
MIC Enterococcus faecalis (GC 4552) (Enterococcus sp.; inoculum 5×10^5 CFU/mL): 16 µg/mL (≈ 10.9 µM)
MIC Enterococcus faecalis (GC 4553) (Enterococcus sp.; inoculum 5×10^5 CFU/mL): 16 µg/mL (≈ 10.9 µM)
MIC Enterococcus faecalis (GC 4554) (Enterococcus sp.; inoculum 5×10^5 CFU/mL): 16 µg/mL (≈ 10.9 µM)
MIC Enterococcus faecium (GC 4556) (Enterococcus sp.; inoculum 5×10^5 CFU/mL): 16 µg/mL (≈ 10.9 µM)
MIC Enterococcus faecium (GC 4557) (Enterococcus sp.; inoculum 5×10^5 CFU/mL): 8 µg/mL (≈ 5.46 µM)
MIC Enterococcus avium (GC 4558) (Enterococcus sp.; inoculum 5×10^5 CFU/mL): 16 µg/mL (≈ 10.9 µM)
MIC Enterococcus faecalis (GC 6189) (Enterococcus sp.; inoculum 5×10^5 CFU/mL): 16 µg/mL (≈ 10.9 µM)
MIC Enterococcus faecalis (ATCC 29212) (Enterococcus sp.): 16 µg/mL (≈ 10.9 µM)
MIC Enterococcus faecalis (GC 2242) (Enterococcus sp.; strain GC 2242): 16 µg/mL (≈ 10.9 µM)
MIC Enterococcus faecium (GC 2243) (Enterococcus sp.): 16 µg/mL (≈ 10.9 µM)
MIC Enterococcus faecalis (GC 2691) (Enterococcus sp.; strain GC 2691): 16 µg/mL (≈ 10.9 µM)
MIC Enterococcus faecalis (GC 3059) (Enterococcus sp.; strain GC 3059): 16 µg/mL (≈ 10.9 µM)
MIC Enterococcus faecalis (GC 4552) (Enterococcus sp.): 16 µg/mL (≈ 10.9 µM)
MIC Enterococcus faecalis (GC 4553) (Enterococcus sp.): 16 µg/mL (≈ 10.9 µM)
MIC Enterococcus faecalis (GC 4554) (Enterococcus sp.): 16 µg/mL (≈ 10.9 µM)
MIC Enterococcus faecium (GC 4556) (Enterococcus sp.): 16 µg/mL (≈ 10.9 µM)
MIC Enterococcus faecium (GC 4557) (Enterococcus sp.): 8 µg/mL (≈ 5.46 µM)
MIC Enterococcus avium (GC 4558) (Enterococcus sp.): 16 µg/mL (≈ 10.9 µM)
MIC Enterococcus faecalis (GC 6189) (Enterococcus sp.): 16 µg/mL (≈ 10.9 µM)
Structure (SMILES): CC(=O)n1cc(C2OCC3OC(OC4C(CO)OC(Oc5ccc(CC6NC(=O)C(C(C)c7ccccc7)NC(=O)CNC(=O)C(CO)NC(=O)C(C(O)C7CNC(=N)N7C7OC(CO)C(O)C(O)C7O)NC(=O)C(C(O)C7CNC(=N)N7)NC6=O)cc5)C(O)C4O)C(O)C(O)C3O2)c2ccccc21 (stereo not drawn) [Example 161]
MIC Staphylococcus haemolyticus (GC 4546) (Staphylococcus sp.; strain GC 4546): 4 µg/mL (≈ 2.73 µM)
